Assay results as given in paper PMC11555231 (Nature Communications, 2024).
Bridge positions count the residues as written; N and C are the ends. Square brackets hold non-standard residues; d marks the D form. Peptide text beside a SMILES is read from it.

Columns and labels:
human neutrophils [1] = assay: Time-lapse imaging and NET quantification (NETosis); format: cell-based
Description: (§1) Peripheral venous blood was isolated from consenting healthy adult volunteers in heparin tubes as previously described. Briefly, blood samples were on Histopaque 1119 (Sigma-Aldrich) and then centrifuged for 20 min at 800 × g. The plasma was collected and centrifuged for a second time for 20 min at 800 × g. The neutrophil layer was collected and washed in Hyclone Hank’s Balanced Salt Solution (HBSS) -Ca, -Mg, -Phenol red (GE Healthcare) supplemented with 10 mM HEPES (Invitrogen) 0.1% FBS and further purified with a discontinuous Percoll (GE Healthcare) gradient consisting of layers with densities of 85, 80, 75, 70 and 65% and centrifuged for 20 min at 800 × g. Neutrophil-enriched layers were then collected and washed, and neutrophil purity was assessed using flow cytometry.
About 5 × 10^4 human neutrophils were seeded in a black 96-well plate (PerkinElmer) in HyClone HBSS +Ca, +Mg, - Phenol red (GE Healthcare) containing 10 mM HEPES (Invitrogen). Cells were pre-incubated with the corresponding peptide for 60 min prior to the start of the experiment. DNA of live cells was stained with 4 µg/mL Hoechst (membrane permeable; Thermo Scientific) and DNA from dead cells with 0.2 µM Sytox-green (membrane impermeable; Invitrogen). Cells were stimulated with 100 nM PMA, 5 µM Ca-Ionophore or 0.1 mg/mL cholesterol crystals at the start of the microscope acquisition. Plates stimulated with cholesterol crystals were centrifuged at 300×g for 5 min at RT immediately prior to microscope acquisition. The cells were imaged on an inverted Nikon wide-field microscope system at 37 °C and CO2 (5%). Four fields of view were acquired per well every 15 mins for 10–15 h using a 40x objective. NETs were differentiated from necrotic cells by the size of the sytox signal using FIJI[86]. […] [85]. Area measurements were distributed into bins of increasing area sizes and plotted as a percentage of the total number of Sytox-green positive (dead) cells.

human neutrophils [2] = assay: Ca-ionophore stimulated neutrophils, citrullinated H3 immunostaining and confocal microscopy / immunoblot; format: cell-based; conditions: sheet Figure_3G, Ca-I + peptide
Description: as §1
About 5 × 10^4 sorted neutrophils were seeded in 24-well cell culture plates containing glass coverslips in HyClone HBSS +Ca, +Mg, - Phenol red (GE Healthcare) supplemented with 10 mM HEPES (Invitrogen). Neutrophils were stimulated with 5 µM Ca-Ionophore (Sigma) and fixed for 20 min at room temperature with 2% paraformaldehyde at RT. Cells were then washed and permeabilized with 0.5% Triton X-100 in PBS. Non-specific binding was blocked with 2% BSA (Sigma) and 2% donkey serum (Sigma) in PBS. Samples were stained with DAPI (Life Technologies), the rabbit anti-CitH3 (Abcam; ab5103 1:500) and donkey anti-rabbit alexa488 (Invitrogen; A21206). Fluorescence imaging was performed on a Leica TCS SP8 inverted confocal microscope using sequential scan in between frames mode with a 20x objective.
Neutrophil samples were boiled in a sodium dodecyl sulphate (SDS) buffer containing dithiothreitol (DTT) and run on a polyacrylamide gel electrophoresis (SDS-PAGE) using Criterion TGX precast gels (Any-KD; Bio-Rad Laboratories). Proteins were then transferred to a PVDF membrane (Bio-Rad Laboratories) via semi-dry transfer. The membrane was blocked with 5% BSA (Fisher Scientific) in Tris-buffered saline with 0.1% Tween-20 (TBS-T). Levels of citrullinated histone H3, total H3 and myeloperoxidase (MPO) were assessed by incubating membranes in either anti-histone H3 citrulline R2 + R8 + R17 (Abcam; ab5103 1:1000), anti-histone H3 (Millipore; 07-690 1:10000) or anti-MPO (DAKO; A0398 1:2500) overnight at 4 °C, respectively. For cell lysate-based assays and pull-down assays, membranes were incubated as above with anti-hPADI4 (Abcam; ab50332; 1:1000 in 5% BSA/TBS-T), anti-Bcr (Cell Signalling #3902S; 1:1000 in 3% milk/TBS-T) and anti-Impdh2 (Cell Signalling #57068S; 1:1000 in 3% milk/TBS-T). Membranes were washed in 0.1% TBS-T and subsequently incubated with goat anti-rabbit HRP or anti-goat (Fisher Scientific) for 1 h, followed by final washes in 0.1% TBS-T. Membranes were imaged with enhanced chemiluminescent substrate (ECL) (Thermo Fisher) on a Bio-Rad imager.

[3] = DNA area (μm) 1500, replicate 1
[4] = DNA area (μm) 1500, replicate 2
[5] = DNA area (μm) 1500, replicate 4

| Compound | share per DNA area bin (human neutrophils [1]; DNA area (μm) 150, replicate 1) | share per DNA area bin (human neutrophils [1]; DNA area (μm) 150, replicate 2) | share per DNA area bin (human neutrophils [1]; DNA area (μm) 150, replicate 3) | share per DNA area bin (human neutrophils [1]; DNA area (μm) 150, replicate 4) | share per DNA area bin (human neutrophils [1]; DNA area (μm) 250, replicate 1) | share per DNA area bin (human neutrophils [1]; DNA area (μm) 250, replicate 2) | share per DNA area bin (human neutrophils [1]; DNA area (μm) 250, replicate 3) | share per DNA area bin (human neutrophils [1]; DNA area (μm) 250, replicate 4) | share per DNA area bin (human neutrophils [1]; DNA area (μm) 750, replicate 1) | share per DNA area bin (human neutrophils [1]; DNA area (μm) 750, replicate 2) | share per DNA area bin (human neutrophils [1]; DNA area (μm) 750, replicate 3) | share per DNA area bin (human neutrophils [1]; DNA area (μm) 750, replicate 4) | share per DNA area bin (human neutrophils [1]; [3]) | share per DNA area bin (human neutrophils [1]; [4]) | share per DNA area bin (human neutrophils [1]; DNA area (μm) 1500, replicate 3) | share per DNA area bin (human neutrophils [1]; [5]) | Figure 3G quantification in Ca-I stimulated neutrophils (citrullinated H3 immunostaining) (human neutrophils [2]; replicate 1 (first data row)) | Figure 3G quantification in Ca-I stimulated neutrophils (citrullinated H3 immunostaining) (human neutrophils [2]; replicate 2 (second data row)) | Figure 3G quantification in Ca-I stimulated neutrophils (citrullinated H3 immunostaining) (human neutrophils [2]; replicate 3 (third data row)) | Figure 3G quantification in Ca-I stimulated neutrophils (citrullinated H3 immunostaining) (human neutrophils [2]; replicate 4 (fourth data row)) |
| --- | --- | --- | --- | --- | --- | --- | --- | --- | --- | --- | --- | --- | --- | --- | --- | --- | --- | --- | --- | --- |
| N=C(N)NCCC[C@@H]1NC(=O)[C@H](Cc2ccc(O)cc2)NC(=O)[C@H](Cc2c[nH]cn2)NC(=O)[C@H](Cc2c[nH]cn2)NC(=O)[C@H](CC(=O)O)NC(=O)[C@H](CCCNC(=N)N)NC(=O)[C@@H](Cc2ccc(O)cc2)NC(=O)CSC[C@@H](C(=O)NCC(N)=O)NC(=O)[C@H](Cc2ccc(O)cc2)NC(=O)[C@H](CCCCN)NC(=O)[C@@H]2CCCN2C(=O)[C@H](Cc2c[nH]cn2)NC1=O [PAD4-3] ({CH2CO}-[dY]RDHHYRHPKYCG-NH2; thioether N-12) | 61.7647 | 57.1429 | 62.8571 | 54.7619 | 14.7059 | 5.7143 | 5.7143 | 21.4286 | 23.5294 | 37.1429 | 31.4286 | 23.8095 | 0 | 0 | 0 | 0 | – | – | – | – |
| N=C(N)NCCC[C@@H]1NC(=O)[C@H](CC(=O)O)NC(=O)[C@@H](Cc2ccc(O)cc2)NC(=O)CSC[C@@H](C(=O)NCC(N)=O)NC(=O)[C@H](Cc2ccc(O)cc2)NC(=O)[C@H](CCCCN)NC(=O)[C@@H]2CCCN2C(=O)[C@H](Cc2c[nH]cn2)NC(=O)[C@H](CCCNC(=N)N)NC(=O)[C@H](Cc2ccc(O)cc2)NC(=O)[C@H](Cc2c[nH]cn2)NC(=O)[C@H](Cc2c[nH]cn2)NC1=O [PAD4-3inv] ({CH2CO}-[dY]DRHHYRHPKYCG-NH2; thioether N-12) | 64 | 52.1739 | 52.1739 | 45.1613 | 20 | 0 | 17.3913 | 22.5806 | 16 | 47.8261 | 30.4348 | 29.0323 | 0 | 0 | – | 3.2258 | – | – | – | – |
| N=C(N)NCCC[C@@H]1NC(=O)[C@H](CC(=O)O)NC(=O)[C@@H](Cc2ccc(O)cc2)NC(=O)CSC[C@@H](C(=O)NCC(N)=O)NC(=O)[C@H](Cc2ccc(O)cc2)NC(=O)[C@H](CCCCN)NC(=O)[C@@H]2CCCN2C(=O)[C@H](Cc2c[nH]cn2)NC(=O)[C@H](CCCNC(=N)N)NC(=O)[C@H](Cc2ccc(O)cc2)NC(=O)[C@H](Cc2c[nH]cn2)NC(=O)[C@H](Cc2c[nH]cn2)NC1=O [PADI4-3i] ({CH2CO}-[dY]DRHHYRHPKYCG-NH2; thioether N-12) | – | – | – | – | – | – | – | – | – | – | – | – | – | – | – | – | 33.3333 | 50 | 41.6667 | 50 |
